Experimental findings from ChEMBL document CHEMBL1153643, “Design, synthesis and evaluation of aspirin analogues having an additional carboxylate substituent for antithrombotic activity” (Bioorg Med Chem Lett, 2009) are described below.

Type in all cases: cell-free
Assay [1] has as its target Prostaglandin G/H synthase 1 (Homo sapiens) (UniProt P23219). In words: Inhibition of PGHS-1 in human platelet rich plasma assessed as inhibition of arachidonic acid-induced platelet aggregation at 1000 um treated 5 min before arachidonic acid challenge by turbidimetry.
Assay [2] shares this target. Description: Inhibition of PGHS-1 in human platelet rich plasma assessed as inhibition of U46619-induced platelet aggregation in human platelet rich plasma at 1000 um.
For assay [3] the target is unchanged. In words: Ratio of compound IC50 to aspirin IC50 for PGHS-1 in human platelet rich plasma assessed as inhibition of arachidonic acid-induced platelet aggregation.

Calls of active or inactive are those of the source. The calls are words filed in the database; no cut-off is given here.

Prostaglandin G/H synthase 1 (Homo sapiens), sequence (P23219 whole entry): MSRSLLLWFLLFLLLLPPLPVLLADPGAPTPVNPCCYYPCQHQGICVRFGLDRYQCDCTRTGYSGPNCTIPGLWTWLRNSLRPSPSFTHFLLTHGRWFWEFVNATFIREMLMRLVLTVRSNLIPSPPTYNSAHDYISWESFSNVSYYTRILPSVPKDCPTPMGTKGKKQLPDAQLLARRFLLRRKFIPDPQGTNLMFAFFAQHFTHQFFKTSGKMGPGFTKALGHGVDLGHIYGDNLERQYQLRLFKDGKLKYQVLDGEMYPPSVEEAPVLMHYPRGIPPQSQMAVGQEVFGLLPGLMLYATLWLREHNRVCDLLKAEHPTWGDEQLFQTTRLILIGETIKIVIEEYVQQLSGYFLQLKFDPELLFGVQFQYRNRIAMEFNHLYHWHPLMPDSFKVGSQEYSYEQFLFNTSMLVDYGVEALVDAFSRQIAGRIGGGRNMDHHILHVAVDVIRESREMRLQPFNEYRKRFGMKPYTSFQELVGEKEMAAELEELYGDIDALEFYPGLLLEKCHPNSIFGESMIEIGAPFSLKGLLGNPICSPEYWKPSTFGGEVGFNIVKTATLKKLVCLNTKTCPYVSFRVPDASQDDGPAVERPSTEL

For `CC(=O)Oc1c(C(=O)O)cccc1C(=O)CCCC(=O)O`, in assay [1], the result was inactive.
In the case of `CC(=O)Oc1c(CCCC(=O)O)cccc1C(=O)O`, in assay [1], the outcome was inactive.
As to `COC(=O)CCCCc1cccc(C(=O)OC)c1OC(C)=O`, the outcome in assay [2] was inactive. Moreover, in assay [3], the Ratio IC50 came to 15.
Regarding `CC(=O)Oc1c(CCCCC(=O)O)cccc1C(=O)O`, the result in assay [1] was inactive.
